This assay deals with Human subcutaneous preadipocytes. The assay is described as follows: Lipolysis assay (glycerol release) in differentiated human subcutaneous preadipocytes. The class given is cell-based. On the procedure:
Human subcutaneous preadipocytes were obtained from human patients undergoing liposuction and pooled. The characteristics of the patients are shown below: • Sex: F • B.M.I.: 27.25 (avg.) • AGE: 43 (avg.) The human subcutaneous preadiposytes were designated lot #SL0028.
Preadipocytes were plated in 96-well plates and allowed to differentiate in the absence of compounds (e.g., sclareolide or sclareolide+GPM) for about two weeks. On the day of the assay, the culture medium was removed and the cells were washed gently with Krebs-Ringer buffer (KRB) in the following manner. 120 μl of medium in the wells was removed and 200 μl/well of KRB was added. The KRB in the wells was removed and another aliquot of 200 μl/well of the KRB was added. The wells were washed one row at a time to ensure that the cells remained moist and stayed attached to the plate.
Next, all of the KRB was removed and the cells were treated with 150 μl/well of the controls or 150 μl/well of the test compounds (resuspended in KRB with 1% BSA), either 1) sclareolide at […] or 2) sclareolide plus GPM at […], and incubated at 37° C. for five hours. The assay was performed in triplicate.
At the end of the treatment, 100 μl/well of the conditioned media was removed from the assay plate and added to the corresponding well of a new plate. […]
The optical density of each well of the new plate was measured at 540 nm.

Here are results for one compound from patent US7785585B2, “Compositions comprising sclareol or derivatives thereof and uses thereof” (Avoca, Inc., priority 2004, dated 2010).

For the compound `CC1(C)CCC[C@]2(C)[C@H]3CC(=O)O[C@]3(C)CC[C@@H]12` [Sclareolide], the “% Increase in Lipolysis over Control” value (Sclareolide concentration 10 μg/ml, 37° C. for five hours, glycerol assay, OD 540 nm, triplicate) is recorded as 55%. Further, the “Lipolysis over the control (in words)” value (sclareolide 10 μg/ml, sclareolide+GPM 7.5 μg/ml, five hours) is “significantly increased lipolysis over the control”.
